Test results taken from ChEMBL document CHEMBL1201862, “PubChem BioAssay data set” (2004).
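48-hour exposure; five concentrations; linearly interpolated endpoints. GI50 = concentration required for 50% inhibition of growth.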 Active and inactive are the calls of the source. Cut-off read from the data, not from the text of the source: active = GI50 up to about 1.1 µM and inactive = higher.

Key:
Experiment in all cases: growth of human tumour cells (NCI), 48 h
[1] = tested on: OVCAR-3
[2] = tested on: SK-MEL-5
[3] = tested on: NCI-H460
[4] = tested on: Hs-578T
[5] = tested on: SNB-19
[6] = tested on: NCI-H23
[7] = tested on: MDA-N
[8] = tested on: SF-539
[9] = tested on: TK-10
[10] = tested on: Malme-3M
[11] = tested on: MDA-MB-435
[12] = tested on: UACC-257
[13] = tested on: COLO 205
[14] = tested on: A498
[15] = tested on: HOP-62
[16] = tested on: M14
[17] = tested on: SK-OV-3
[18] = tested on: IGROV-1
[19] = tested on: T47D
[20] = tested on: HOP-92
[21] = tested on: HCT-116
[22] = tested on: OVCAR-5
[23] = tested on: CCRF-CEM
[24] = tested on: K562
[25] = tested on: NCI-H522
[26] = tested on: HT-29
[27] = tested on: MCF7
[28] = tested on: CAKI-1
[29] = tested on: ACHN
[30] = tested on: RXF 393
[31] = tested on: HL-60
[32] = tested on: HCT-15
[33] = tested on: SNB-75
[34] = tested on: LOX IMVI
[35] = tested on: SR
[36] = tested on: UO-31
[37] = tested on: OVCAR-4
[38] = tested on: DU-145
[39] = tested on: NCI-H226
[40] = tested on: BT-549
[41] = tested on: RPMI-8226
[42] = tested on: SW-620
[43] = tested on: HCC 2998
[44] = tested on: UACC-62
[45] = tested on: EKVX
[46] = tested on: KM12
[47] = tested on: SF-268
[48] = tested on: 786-0
[49] = tested on: MOLT-4
[50] = tested on: A549
[51] = tested on: SF-295
[52] = tested on: PC-3
[53] = tested on: SK-MEL-28
[54] = tested on: OVCAR-8
[55] = tested on: U-251
[56] = tested on: SN12C
[57] = tested on: NCI/ADR-RES
[58] = tested on: SK-MEL-2
[59] = tested on: MDA-MB-231

Measured: GI50

O=P1(C(O)/C=C/c2ccccc2)N(Cc2ccccc2)[C@H](c2ccccc2)[C@@H](c2ccccc2)N1Cc1ccccc1 (stereo partly drawn)
32.1 µM: [32]
inactive: [1] 16.9 µM | [2] 14.7 µM | [3] 15 µM | [4] 26.2 µM | [5] 24.3 µM | [6] 13.1 µM | [7] 16.5 µM | [8] > 51.3 µM | [9] 26 µM | [10] 27.8 µM | [11] 19.3 µM | [12] 8.97 µM | [13] 11.9 µM | [14] 37.7 µM | [15] 29.8 µM | [16] 14.4 µM | [17] 22.5 µM | [18] 2.24 µM | [19] 7.13 µM | [20] 11 µM | [21] 8.15 µM | [22] 21.8 µM | [23] 10.5 µM | [24] 7.85 µM | [25] 4.9 µM | [26] 14.2 µM | [27] 12 µM | [28] 17.1 µM | [29] 27.4 µM | [30] 21.3 µM | [31] 6.87 µM | [33] 19 µM | [34] 17.5 µM | [35] 4.75 µM | [36] 12.5 µM | [37] 13 µM | [38] 38.5 µM | [39] 36.6 µM | [40] 28.6 µM | [41] 3.63 µM | [42] 26.1 µM | [43] 19.6 µM | [44] 11 µM | [45] 11.7 µM | [46] 17 µM | [47] 23.8 µM | [48] 23.7 µM | [49] 2.61 µM | [50] 6.92 µM | [51] 14 µM | [52] 7.55 µM | [53] 35.2 µM | [54] 10.2 µM | [55] 19.9 µM | [56] 13.6 µM | [57] 26 µM | [58] 14.1 µM | [59] 17.3 µM

COc1nc2nccnc2c(=O)n1C
> 10 µM: [32]
inactive: [1] > 10 µM | [2] > 10 µM | [3] > 10 µM | [4] > 10 µM | [5] > 10 µM | [6] > 10 µM | [7] > 10 µM | [8] > 10 µM | [9] > 10 µM | [10] > 10 µM | [11] > 10 µM | [12] > 10 µM | [13] > 10 µM | [14] > 10 µM | [15] > 10 µM | [16] > 10 µM | [17] > 10 µM | [18] > 10 µM | [19] > 10 µM | [20] > 10 µM | [21] > 10 µM | [22] > 10 µM | [23] > 10 µM | [24] > 10 µM | [25] > 10 µM | [26] > 10 µM | [27] > 10 µM | [28] > 10 µM | [29] > 10 µM | [30] > 10 µM | [31] > 10 µM | [33] > 10 µM | [34] > 10 µM | [35] > 10 µM | [36] > 10 µM | [37] > 10 µM | [38] > 10 µM | [39] > 10 µM | [40] > 10 µM | [41] > 10 µM | [42] > 10 µM | [43] > 10 µM | [44] > 10 µM | [45] > 10 µM | [46] > 10 µM | [47] > 10 µM | [48] > 10 µM | [49] > 10 µM | [50] > 10 µM | [51] > 10 µM | [52] > 10 µM | [53] > 10 µM | [54] > 10 µM | [55] > 10 µM | [56] > 10 µM | [57] > 10 µM | [58] > 10 µM | [59] > 10 µM
